Results as given in PubChem BioAssay AID514 (SGCOxCompounds, 2006).

Target: STE20-like serine/threonine-protein kinase (Homo sapiens) (UniProt Q9H2G2)
Assay: ligand-induced SLK melting temperature shift – biophysical, purified human kinase, DSF (AID 514)
Conditions: differential scanning fluorimetry Tm shift, at 10 µM, protein 2 µM, buffer 10 mM HEPES, pH 7.5, NaCl 150 mM, active compounds read high

Chain of STE20-like serine/threonine-protein kinase (Homo sapiens) (Q9H2G2 whole entry, looked up): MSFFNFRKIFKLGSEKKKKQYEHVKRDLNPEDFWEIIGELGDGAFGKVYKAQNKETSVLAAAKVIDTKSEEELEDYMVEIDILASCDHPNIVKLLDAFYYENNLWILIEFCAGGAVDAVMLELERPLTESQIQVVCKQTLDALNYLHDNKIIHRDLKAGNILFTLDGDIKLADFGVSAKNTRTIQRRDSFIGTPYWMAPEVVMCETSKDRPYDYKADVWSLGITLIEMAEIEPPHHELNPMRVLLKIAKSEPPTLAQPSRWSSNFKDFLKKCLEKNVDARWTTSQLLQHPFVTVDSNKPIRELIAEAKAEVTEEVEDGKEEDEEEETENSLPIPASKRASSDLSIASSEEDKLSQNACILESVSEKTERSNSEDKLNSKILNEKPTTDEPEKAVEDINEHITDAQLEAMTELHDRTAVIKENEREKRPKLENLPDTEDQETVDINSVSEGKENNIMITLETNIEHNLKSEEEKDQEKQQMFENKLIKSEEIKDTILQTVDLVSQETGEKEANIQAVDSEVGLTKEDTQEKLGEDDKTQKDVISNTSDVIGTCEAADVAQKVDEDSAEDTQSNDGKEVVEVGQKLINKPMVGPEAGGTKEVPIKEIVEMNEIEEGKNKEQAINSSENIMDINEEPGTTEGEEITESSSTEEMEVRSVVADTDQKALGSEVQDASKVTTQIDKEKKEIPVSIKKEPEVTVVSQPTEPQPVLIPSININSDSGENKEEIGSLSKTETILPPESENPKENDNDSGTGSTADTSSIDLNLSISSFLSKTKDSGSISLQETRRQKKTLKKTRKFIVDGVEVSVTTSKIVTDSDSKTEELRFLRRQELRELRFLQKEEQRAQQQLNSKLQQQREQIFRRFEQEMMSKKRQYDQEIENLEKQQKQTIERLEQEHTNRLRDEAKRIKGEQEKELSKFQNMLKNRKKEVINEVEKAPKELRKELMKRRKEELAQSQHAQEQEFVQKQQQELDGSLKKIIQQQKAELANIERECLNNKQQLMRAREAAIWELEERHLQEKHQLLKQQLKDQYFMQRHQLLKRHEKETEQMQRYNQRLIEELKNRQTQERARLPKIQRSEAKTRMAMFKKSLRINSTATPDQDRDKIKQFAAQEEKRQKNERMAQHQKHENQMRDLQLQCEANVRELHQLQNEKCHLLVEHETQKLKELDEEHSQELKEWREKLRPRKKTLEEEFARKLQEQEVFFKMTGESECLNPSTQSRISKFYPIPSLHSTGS

| SMILES | Tm shift [C] |
| --- | --- |
| O=C1NCc2c1c1c3ccccc3[nH]c1c1[nH]c3ccccc3c21 | 5.1 |
| COc1ccc(Nc2nc(N)c(C(=O)c3ccc(OC)cc3)s2)cc1 | 3.9 |
| Oc1ccc(-c2nc(-c3ccc(F)cc3)c(-c3ccncc3)[nH]2)cc1 | 4.4 |
| Oc1cccc(-c2cnc3ccc(NCC4CC4)nn23)c1 | 3.2 |
| OCC(O)CCO/N=C1/C(c2c(O)[nH]c3ccccc23)=Nc2ccccc21 (configuration not stated) | 4.7 |
| COc1cc(/C=C/C(=O)CC(=O)/C=C/c2ccc(O)c(OC)c2)ccc1O | 3.2 |
| CCC(CO)Nc1ccc2ncc(-c3cccc(OC(F)(F)F)c3)n2n1 (configuration not stated) | 3.6 |
| O=C(c1ccc(Nc2nccc(-c3cc4ccccc4s3)n2)cc1)N1CCC(N2CCCC2)CC1 | 7.3 |
| CCC(CO)Nc1ccc2ncc(-c3ccc(F)c(Cl)c3)n2n1 (configuration not stated) | 3.8 |
| Nc1ncnc2c1c(I)cn2[C@@H]1O[C@H](CO)C(O)C1O (some centres not stated) | 4.2 |
| CCCNC(=O)Nc1ccc(Oc2ncnc3cc(OC)c(OC)cc23)cc1Cl | 5.8 |
| CC(=O)c1cccc(-c2cnc3ccc(N[C@H](CO)C(C)C)nn23)c1 | 3.7 |
| O=C1NC(=O)C(c2cn(CCCn3ccnc3)c3ccccc23)=C1Nc1ccccc1 | 6.3 |
| O=Nc1c(-c2c(O)[nH]c3cc(Br)ccc23)[nH]c2ccccc12 | 4.6 |
| CN(C)S(O)(O)c1ccc2c(c1)/C(=C/c1cc3c([nH]1)CCCC3)C(=O)N2 | 6.2 |
| CC(C)(C)n1nc(-c2cccc3ccccc23)c2c(N)ncnc21 | 6.1 |
| CN(C)CC1CCn2c(c(C3=C(c4cn(C)c5ccccc45)C(=O)NC3=O)c3ccccc32)C1 (configuration not stated) | 4.2 |
| O=c1c(O)c(-c2ccc(O)c(O)c2)oc2cc(O)cc(O)c12 | 5.7 |
| c1ccc(-c2cnc3ccc(NCc4ccco4)nn23)cc1 | 3.1 |
| O=C(Nc1cccc(Nc2cc(Nc3cccc(C(F)(F)F)c3)ncn2)c1)C1CC1 | 3.4 |
| COc1ccc(C(=O)c2sc(Nc3cccc(C(F)(F)F)c3)nc2N)cc1 | 4.5 |

| SMILES | Tm shift [C] |
| --- | --- |
| Fc1ccc(-c2cnc3ccc(NC4CCOCC4)nn23)cc1 | 3.6 |
| CN(C)CCCn1cc(C2=C(c3c[nH]c4ccccc34)C(=O)NC2=O)c2ccccc21 | 6.8 |
| O=C1Nc2ccc(Br)cc2/C1=C/c1cc2c([nH]1)CCCC2 | 3.6 |
| CCn1cnc2c(Nc3cccc(Cl)c3)nc(N[C@@H]3CCCC[C@@H]3N)nc21 | 6.4 |
| NC(=O)Nc1sc(-c2ccccc2)cc1C(N)=O | 3.5 |
| N#Cc1cnc2cnc(NCc3cccnc3)cc2c1Nc1ccc(F)c(Cl)c1 | 6.1 |
| CC(C)[C@@H](CO)Nc1ccc2ncc(-c3cccc(F)c3)n2n1 | 4.2 |
| Cc1cc(Nc2nc(-c3ccccc3)nc3ccccc23)n[nH]1 | 6.4 |
| CC(O)(O)C1(O)C[C@@H]2O[C@@]1(C)n1c3ccccc3c3c4c(c5c6ccccc6n2c5c31)C(=O)NC4 (some centres not stated) | 6.3 |
| Cc1nc(N)sc1-c1ccnc(Nc2cccc(-n3oo3)c2)n1 | 3.6 |
| c1csc(-c2cnc3ccc(NCC4CC4)nn23)c1 | 3.3 |
| COc1cc2ncnc(Nc3cccc(O)c3)c2cc1OC | 3.2 |
| CCC(CO)Nc1ccc2ncc(-c3ccc(O)cc3)n2n1 (configuration not stated) | 3.7 |
| Cn1cc(C2=C(c3c4n(c5ccccc35)CCC(CN)C4)C(=O)NC2=O)c2ccccc21 (configuration not stated) | 4.5 |
| COc1ccc(Nc2nc(N)c(C(=O)c3ccc(Cl)cc3)s2)cc1 | 4.4 |
| CNC(=O)c1cc(Oc2ccc(NC(=O)Nc3ccc(C)c(C(F)(F)F)c3)cc2)ccn1 | 8 |
| NCCCn1cc(C2=C(c3c[nH]c4ccccc34)C(=O)NC2=O)c2ccccc21 | 7.6 |
| Oc1ccc(Nc2nccn3c(-c4cn[nH]c4)cnc23)cc1 | 4.7 |
| NCCNc1ncc(C(N)=O)c(Nc2cccc(C(F)(F)F)c2)n1 | 3.3 |
| Fc1cccc(-c2cnc3ccc(NC4CCOCC4)nn23)c1 | 4.1 |
| Clc1cccc(-c2cnc3ccc(NC4CCOCC4)nn23)c1 | 3.9 |

| SMILES | Tm shift [C] |
| --- | --- |
| Nc1cc2ncnc(Nc3cccc(Br)c3)c2cc1N | 5.7 |
| COc1ccc2c(c1)/C(=C/c1cnc[nH]1)C(=O)N2 | 3.3 |
| CCN(CC)CCNC(=O)c1c(C)[nH]c(/C=C2\C(=O)Nc3ccc(Cl)cc32)c1C | 7.5 |
| O=C1Nc2ccccc2/C1=C\c1cnc[nH]1 | 3.3 |
| COc1ccccc1-c1cnc2[nH]c(=O)n(C3CCCC3)c2n1 | 3.3 |
| ON(O)c1ccc(-c2nc(-c3ccc(F)cc3)c(-c3ccncc3)[nH]2)cc1 | 5.4 |
| CC(C)(C)n1nc(-c2ccc(Cl)cc2)c2c(N)ncnc21 | 3.6 |
| Clc1cccc(-c2cnc3ccc(NCCc4ccccn4)nn23)c1 | 3.5 |
| CC(C)[C@@H](CO)Nc1ccc2ncc(-c3cccc(O)c3)n2n1 | 4.5 |
| Cn1c(O)c(C2=c3ccccc3=NC2=O)[nH]c1=S | 3.4 |
| Clc1cccc(Nc2ccn3ncc(-c4ccc5c(c4)OCO5)c3n2)c1 | 3.7 |
| O=Nc1c(-c2c(O)[nH]c3ccccc23)[nH]c2ccccc12 | 3.9 |
| CCOc1cc2ncnc(Nc3cccc(Br)c3)c2cc1OCC | 7.9 |
| COc1cc2ncnc(Nc3ccc(NC(=O)c4ccccc4)cc3)c2cc1OC | 5.5 |
| N=C(N)SCCCn1cc(C2=C(c3c[nH]c4ccccc34)C(=O)NC2=O)c2ccccc21 | 10.6 |
| Nc1ccc(-c2cnn3ccc(Nc4cccc(Cl)c4)nc23)cc1 | 4 |
| COc1cncc(-c2cnc3ccc(N[C@H](CO)C(C)C)nn23)c1 | 3.1 |
| O=C1NC(=O)C(c2c[nH]c3ccccc23)=C1c1c[nH]c2ccccc12 | 4.6 |
| COc1cccc(-c2cnn3ccc(Nc4cccc(Cl)c4)nc23)c1 | 4.7 |
| O=Nc1c(-c2c(O)[nH]c3ccc(I)cc23)[nH]c2ccccc12 | 3.7 |
| Nc1nc(Nc2cccc(Cl)c2)sc1C(=O)c1ccc(F)cc1 | 3.7 |

| SMILES | Tm shift [C] |
| --- | --- |
| Nc1cccc(-c2cnn3ccc(Nc4cccc(Cl)c4)nc23)c1 | 3.7 |
| CC(C)[C@@H](CO)Nc1ccc2ncc(-c3cccc(C(F)(F)F)c3)n2n1 | 4.8 |
| Nc1nc(Nc2ccc(S(N)(=O)=O)cc2)nn1C(=S)Nc1c(F)cccc1F | 12.1 |
| FC(F)(F)Oc1cccc(-c2cnc3ccc(NC4CCOCC4)nn23)c1 | 3.6 |
| COc1cc2ncnc(Nc3cccc(Br)c3)c2cc1OC | 6.9 |
| Clc1ccc(-c2cnc3ccc(NC4CCOCC4)nn23)cc1 | 3.1 |
| CC(C)[C@@H](CO)Nc1ccc2ncc(-c3cccc(OC(F)(F)F)c3)n2n1 | 4.3 |
| COc1cncc(-c2cnc3ccc(NC4CCOCC4)nn23)c1 | 3.4 |
| CC(C)[C@@H](CO)Nc1ccc2ncc(-c3ccc(C#N)cc3)n2n1 | 3.7 |
| COc1c(C=O)c(O)cc2c1C(=O)c1ccccc1C2=O | 5.4 |
| Nc1cccc(-c2cc3c(Oc4cccc(O)c4)ncnc3[nH]2)c1 | 5.7 |
| Oc1cccc(-c2cnc3ccc(NC4CCOCC4)nn23)c1 | 4.6 |
| COc1ccc(Cl)cc1NC(=O)Nc1cc(C)nc2ccccc12 | 3.4 |
| CC(C)[C@@H](CO)Nc1ccc2ncc(-c3cccc(Cl)c3)n2n1 | 4.7 |
| O=C(Nc1cccc(Nc2nccc(Nc3cccc(C(F)(F)F)c3)n2)c1)C1CC1 | 3.7 |
| CC(C)C(CO)Nc1nc(Nc2cc(N)cc(Cl)c2)c2ncn(C(C)C)c2n1 (configuration not stated) | 6.2 |
| Cn1cc(/C=C2\C(=O)Nc3ccc(S(N)(=O)=O)cc32)c2ccccc21 | 5 |
| Cc1[nH]c(/C=C2\C(=O)Nc3ccc(S(=O)(=O)N(C)c4cccc(Cl)c4)cc32)c(C)c1C(=O)N1CCN(C)CC1 | 7.7 |
| O=C1Nc2ccccc2/C1=C/c1ccc[nH]1 | 3.1 |
